Results reported in ChEMBL document CHEMBL5465560, “Selectivity Literature for EUbOPEN Chemogenomic Library” (2024).

Legend:
[1] = biological target: T1, MAP/microtubule affinity-regulating kinase 4 (Homo sapiens) (UniProt Q96L34); assay: Selectivity interaction (Kinase panel (KiNativ target engagement assay in Jurkat cells)) EUB0001635a MARK4; type: cell-based; details: Selectivity number of off-targets 0.0, Selectivity number of targets 233.0, Source Knowledge https://www.sciencedirect.com/science/article/pii/S2451945619300674?via%3Dihub, at 1 µM
T1 sequence (whole entry): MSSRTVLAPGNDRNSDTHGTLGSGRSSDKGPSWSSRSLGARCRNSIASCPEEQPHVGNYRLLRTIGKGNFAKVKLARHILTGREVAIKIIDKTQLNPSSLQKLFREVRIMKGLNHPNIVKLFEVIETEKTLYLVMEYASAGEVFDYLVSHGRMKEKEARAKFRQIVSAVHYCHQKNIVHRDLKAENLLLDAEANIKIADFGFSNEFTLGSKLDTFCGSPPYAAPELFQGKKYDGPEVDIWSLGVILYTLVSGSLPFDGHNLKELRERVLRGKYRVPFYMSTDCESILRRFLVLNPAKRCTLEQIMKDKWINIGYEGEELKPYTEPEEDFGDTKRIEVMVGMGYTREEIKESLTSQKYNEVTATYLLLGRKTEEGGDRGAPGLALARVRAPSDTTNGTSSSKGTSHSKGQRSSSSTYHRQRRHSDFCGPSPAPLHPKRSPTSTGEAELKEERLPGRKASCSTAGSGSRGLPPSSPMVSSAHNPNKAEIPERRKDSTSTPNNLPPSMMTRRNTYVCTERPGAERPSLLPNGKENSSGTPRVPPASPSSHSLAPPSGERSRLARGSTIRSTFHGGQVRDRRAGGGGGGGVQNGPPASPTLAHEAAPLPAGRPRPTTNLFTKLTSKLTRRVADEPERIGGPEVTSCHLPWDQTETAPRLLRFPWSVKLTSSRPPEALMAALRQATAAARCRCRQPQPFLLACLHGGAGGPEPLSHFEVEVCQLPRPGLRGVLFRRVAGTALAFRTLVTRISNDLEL

[2] = biological target: Glycogen synthase kinase-3 beta (Homo sapiens, UniProt P49841); details: at 10 µM
[3] = biological target: Serine/threonine-protein kinase WNK2 (Homo sapiens) (UniProt Q9Y3S1); assay: Selectivity interaction (ActivX KiNativ screen (kinase selectivity in THP-1 cell lysates)) EUB0000639a WNK2; type: subcellular; details: lysate, at 1 µM
[4] = biological target: Serine/threonine-protein kinase MARK2 (Homo sapiens) (UniProt Q7KZI7); assay: Selectivity interaction (Kinase screening (Nanosyn)) EUB0000604a MARK2
[5] = biological target: T2, Serine/threonine-protein kinase LATS2 (Homo sapiens) (UniProt Q9NRM7); assay: Selectivity interaction (ActivX KiNativ screen (ex vivo kinase selectivity in human PBMCs)) EUB0001619a LATS2; type: cell-based; details: PBMC, at 1 µM
T2 sequence (whole entry): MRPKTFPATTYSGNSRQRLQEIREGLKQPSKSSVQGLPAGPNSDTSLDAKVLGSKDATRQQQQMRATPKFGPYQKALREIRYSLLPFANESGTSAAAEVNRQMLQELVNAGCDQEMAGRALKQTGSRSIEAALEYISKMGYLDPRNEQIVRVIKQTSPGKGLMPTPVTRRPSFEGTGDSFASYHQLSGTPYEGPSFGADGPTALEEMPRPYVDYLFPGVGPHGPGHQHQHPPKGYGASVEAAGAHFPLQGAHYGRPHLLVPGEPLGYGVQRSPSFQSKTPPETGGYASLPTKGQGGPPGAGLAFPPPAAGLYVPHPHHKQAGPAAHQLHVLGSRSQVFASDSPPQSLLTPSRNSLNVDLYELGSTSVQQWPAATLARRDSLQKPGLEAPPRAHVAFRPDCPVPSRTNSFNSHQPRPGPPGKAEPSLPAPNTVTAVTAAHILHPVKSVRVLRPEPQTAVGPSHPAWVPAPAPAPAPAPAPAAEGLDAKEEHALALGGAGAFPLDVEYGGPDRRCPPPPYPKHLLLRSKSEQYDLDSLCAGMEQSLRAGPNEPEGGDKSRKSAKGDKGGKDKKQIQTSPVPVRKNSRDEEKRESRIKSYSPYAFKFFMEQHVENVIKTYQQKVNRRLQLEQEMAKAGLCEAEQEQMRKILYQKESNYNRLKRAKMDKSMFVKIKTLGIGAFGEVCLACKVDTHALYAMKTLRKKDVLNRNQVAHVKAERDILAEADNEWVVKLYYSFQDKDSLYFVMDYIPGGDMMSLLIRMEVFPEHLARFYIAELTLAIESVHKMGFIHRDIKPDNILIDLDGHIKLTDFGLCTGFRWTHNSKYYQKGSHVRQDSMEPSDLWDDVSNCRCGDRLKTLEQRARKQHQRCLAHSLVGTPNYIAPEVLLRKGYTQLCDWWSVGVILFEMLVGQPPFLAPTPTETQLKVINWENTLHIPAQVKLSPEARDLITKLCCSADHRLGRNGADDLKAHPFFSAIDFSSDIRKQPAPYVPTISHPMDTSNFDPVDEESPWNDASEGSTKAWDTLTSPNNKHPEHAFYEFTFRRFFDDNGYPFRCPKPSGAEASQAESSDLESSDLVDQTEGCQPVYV

[6] = biological target: Proto-oncogene tyrosine-protein kinase ROS (Homo sapiens) (UniProt P08922); assay: Selectivity interaction (Upstate Kinase Profiler service (Millipore)) EUB0000056c ROS1; details: at 1 µM
[7] = biological target: Tyrosine-protein kinase Lyn (Homo sapiens, UniProt P07948); assay: Selectivity interaction (Kinase panel (Z-LYTE Assay)) EUB0001632a LYN; details: at 10 µM
Chain of Tyrosine-protein kinase Lyn (P07948 2-512 limits assumed): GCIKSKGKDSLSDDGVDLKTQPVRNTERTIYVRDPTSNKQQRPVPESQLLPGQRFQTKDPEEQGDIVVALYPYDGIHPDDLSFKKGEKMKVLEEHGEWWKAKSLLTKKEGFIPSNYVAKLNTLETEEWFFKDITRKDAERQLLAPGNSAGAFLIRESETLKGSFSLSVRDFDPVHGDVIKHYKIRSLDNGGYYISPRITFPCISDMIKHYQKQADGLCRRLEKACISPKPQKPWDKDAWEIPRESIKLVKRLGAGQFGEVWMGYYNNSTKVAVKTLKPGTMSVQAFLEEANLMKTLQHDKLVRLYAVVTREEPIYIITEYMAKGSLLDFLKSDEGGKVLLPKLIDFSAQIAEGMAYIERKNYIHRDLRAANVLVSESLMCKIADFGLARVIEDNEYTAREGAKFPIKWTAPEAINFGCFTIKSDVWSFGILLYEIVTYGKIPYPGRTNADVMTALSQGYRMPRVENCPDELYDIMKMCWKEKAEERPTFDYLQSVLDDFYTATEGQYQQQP

Chain of Proto-oncogene tyrosine-protein kinase ROS (Homo sapiens) (P08922 whole entry): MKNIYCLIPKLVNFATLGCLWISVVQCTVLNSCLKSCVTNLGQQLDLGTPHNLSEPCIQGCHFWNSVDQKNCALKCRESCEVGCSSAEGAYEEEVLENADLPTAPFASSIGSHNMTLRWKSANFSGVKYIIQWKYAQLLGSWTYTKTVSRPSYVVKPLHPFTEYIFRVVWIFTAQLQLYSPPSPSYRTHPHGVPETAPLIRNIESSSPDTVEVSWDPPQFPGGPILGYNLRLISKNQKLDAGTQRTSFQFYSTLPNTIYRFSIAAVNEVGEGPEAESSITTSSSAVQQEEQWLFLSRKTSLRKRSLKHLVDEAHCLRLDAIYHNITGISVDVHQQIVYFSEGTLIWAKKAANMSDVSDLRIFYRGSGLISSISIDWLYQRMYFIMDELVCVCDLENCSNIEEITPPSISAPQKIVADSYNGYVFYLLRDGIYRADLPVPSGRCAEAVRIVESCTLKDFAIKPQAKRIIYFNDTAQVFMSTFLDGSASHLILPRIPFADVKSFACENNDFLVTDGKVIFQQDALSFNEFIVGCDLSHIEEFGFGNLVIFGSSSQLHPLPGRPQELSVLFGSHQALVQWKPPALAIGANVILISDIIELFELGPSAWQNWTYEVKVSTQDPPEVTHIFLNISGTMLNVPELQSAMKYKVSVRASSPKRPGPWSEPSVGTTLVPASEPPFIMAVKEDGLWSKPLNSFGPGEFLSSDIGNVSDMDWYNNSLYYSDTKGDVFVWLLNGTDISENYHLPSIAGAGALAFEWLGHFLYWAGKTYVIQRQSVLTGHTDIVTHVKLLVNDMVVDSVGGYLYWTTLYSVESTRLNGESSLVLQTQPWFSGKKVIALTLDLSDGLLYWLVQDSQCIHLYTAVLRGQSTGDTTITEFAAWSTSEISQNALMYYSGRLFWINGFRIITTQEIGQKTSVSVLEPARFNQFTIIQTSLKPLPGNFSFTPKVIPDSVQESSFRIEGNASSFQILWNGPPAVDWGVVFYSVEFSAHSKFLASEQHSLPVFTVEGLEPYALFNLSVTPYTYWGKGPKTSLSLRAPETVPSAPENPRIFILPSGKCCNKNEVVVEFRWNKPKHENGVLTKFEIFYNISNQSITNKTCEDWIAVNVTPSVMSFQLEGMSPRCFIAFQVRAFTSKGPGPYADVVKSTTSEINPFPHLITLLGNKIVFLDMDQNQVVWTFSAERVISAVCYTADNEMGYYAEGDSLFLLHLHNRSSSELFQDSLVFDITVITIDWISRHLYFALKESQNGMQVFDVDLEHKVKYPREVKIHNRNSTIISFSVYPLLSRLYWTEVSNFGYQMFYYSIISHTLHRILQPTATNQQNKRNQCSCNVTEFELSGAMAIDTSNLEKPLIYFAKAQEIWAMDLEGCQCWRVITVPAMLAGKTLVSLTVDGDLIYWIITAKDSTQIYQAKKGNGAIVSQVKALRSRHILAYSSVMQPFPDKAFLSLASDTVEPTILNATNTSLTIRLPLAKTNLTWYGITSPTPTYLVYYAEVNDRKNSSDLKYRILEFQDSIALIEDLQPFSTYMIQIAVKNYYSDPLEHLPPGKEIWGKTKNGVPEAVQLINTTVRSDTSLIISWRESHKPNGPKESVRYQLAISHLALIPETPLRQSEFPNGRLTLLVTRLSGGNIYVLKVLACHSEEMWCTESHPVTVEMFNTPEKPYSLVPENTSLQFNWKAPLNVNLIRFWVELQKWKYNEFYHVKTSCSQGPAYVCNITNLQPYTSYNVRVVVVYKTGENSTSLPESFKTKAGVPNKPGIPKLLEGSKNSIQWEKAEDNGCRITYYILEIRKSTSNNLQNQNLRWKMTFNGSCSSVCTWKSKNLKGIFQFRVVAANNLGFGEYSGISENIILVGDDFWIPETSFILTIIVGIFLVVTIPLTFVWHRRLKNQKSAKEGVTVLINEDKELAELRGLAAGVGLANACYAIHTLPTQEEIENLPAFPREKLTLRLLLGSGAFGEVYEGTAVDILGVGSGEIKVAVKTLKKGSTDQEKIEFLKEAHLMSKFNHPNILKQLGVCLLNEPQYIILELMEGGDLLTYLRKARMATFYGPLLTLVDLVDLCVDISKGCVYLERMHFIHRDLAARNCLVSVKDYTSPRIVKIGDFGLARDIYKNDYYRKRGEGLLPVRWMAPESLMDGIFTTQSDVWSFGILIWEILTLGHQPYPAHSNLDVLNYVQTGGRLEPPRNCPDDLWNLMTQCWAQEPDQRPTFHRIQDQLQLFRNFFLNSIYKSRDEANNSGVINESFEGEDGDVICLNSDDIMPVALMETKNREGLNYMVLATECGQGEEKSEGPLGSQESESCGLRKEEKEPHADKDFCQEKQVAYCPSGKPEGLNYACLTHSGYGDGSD
Chain of Serine/threonine-protein kinase MARK2 (Homo sapiens) (Q7KZI7 whole entry): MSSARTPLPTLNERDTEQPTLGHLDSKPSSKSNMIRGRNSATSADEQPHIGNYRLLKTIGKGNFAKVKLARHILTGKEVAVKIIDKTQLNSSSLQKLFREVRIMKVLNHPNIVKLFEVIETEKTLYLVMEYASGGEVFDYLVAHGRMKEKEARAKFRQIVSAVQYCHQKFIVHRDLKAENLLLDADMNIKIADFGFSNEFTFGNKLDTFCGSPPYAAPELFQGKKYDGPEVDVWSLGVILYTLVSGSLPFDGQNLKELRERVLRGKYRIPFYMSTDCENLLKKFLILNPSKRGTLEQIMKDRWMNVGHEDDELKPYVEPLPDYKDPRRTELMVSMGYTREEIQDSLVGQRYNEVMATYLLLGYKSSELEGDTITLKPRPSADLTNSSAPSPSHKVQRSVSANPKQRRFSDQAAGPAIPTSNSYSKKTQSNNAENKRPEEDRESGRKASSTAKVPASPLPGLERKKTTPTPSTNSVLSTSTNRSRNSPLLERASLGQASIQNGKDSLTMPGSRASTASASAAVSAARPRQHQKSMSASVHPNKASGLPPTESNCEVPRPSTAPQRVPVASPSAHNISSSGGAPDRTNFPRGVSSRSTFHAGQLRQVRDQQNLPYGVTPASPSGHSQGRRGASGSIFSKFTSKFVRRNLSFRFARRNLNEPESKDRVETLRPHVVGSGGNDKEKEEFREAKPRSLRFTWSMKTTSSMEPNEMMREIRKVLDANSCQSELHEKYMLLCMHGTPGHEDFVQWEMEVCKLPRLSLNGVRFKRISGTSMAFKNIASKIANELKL
Chain of Glycogen synthase kinase-3 beta (P49841 whole entry, looked up): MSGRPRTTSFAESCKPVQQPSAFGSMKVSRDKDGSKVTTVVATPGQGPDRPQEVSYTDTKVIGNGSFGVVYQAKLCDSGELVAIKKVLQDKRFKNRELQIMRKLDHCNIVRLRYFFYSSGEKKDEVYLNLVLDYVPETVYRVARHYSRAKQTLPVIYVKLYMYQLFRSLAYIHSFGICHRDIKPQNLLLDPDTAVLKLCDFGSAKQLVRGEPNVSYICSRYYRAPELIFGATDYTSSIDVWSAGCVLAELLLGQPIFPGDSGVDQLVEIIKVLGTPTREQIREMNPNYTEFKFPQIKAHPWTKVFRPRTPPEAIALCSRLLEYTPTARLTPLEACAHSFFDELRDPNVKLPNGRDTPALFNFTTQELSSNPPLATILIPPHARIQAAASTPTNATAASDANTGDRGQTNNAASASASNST

## C=CC(=O)Nc1ccc(C(=O)Nc2[nH]nc3c2CN(C(=O)N[C@H](CN(C)C)c2ccccc2)C3(C)C)cc1
[1]
  % of engagement: 37%

## CCN(CC)CCCCNc1ncc2cc(-c3cc(OC)cc(OC)c3)c(NC(=O)NC(C)(C)C)nc2n1
[2]
  % of control: 100%

## CC[C@@H]1[C@H](F)C(=O)N[C@@H]1COc1nccc2cc(C(N)=O)c(OC)cc12 [ZIMLOVISERTIB]
[3]
  % of inhibition: -7.7%

## Cc1cnc(Nc2ccc(F)cc2Cl)nc1-c1c[nH]c(C(=O)N[C@H](CO)c2cccc(Cl)c2)c1
[4]
  % of inhibition: 5%

## N#Cc1cccc(-c2c[nH]c3ncnc(N4CCOCC4)c23)c1
[5]
  % of inhibition: 16%

## Cc1ccc(-c2ccc3c(ccc4sc5c(c43)NC[C@@H](C)NC5=O)n2)cn1
[6]
  % of inhibition: -15%

## Cn1cc(-n2cnc3c(NCc4nc5cc(Cl)c(Cl)cc5[nH]4)nc(N4CCOCC4)nc32)cn1
[7]
  % of control: 8.19%
